Results taken from ChEMBL document CHEMBL4145454, “Discovery of 2,4-diarylaminopyrimidines bearing a resorcinol motif as novel ALK inhibitors to overcome the G1202R resistant mutation” (Eur J Med Chem, 2018).
Calls of active or inactive are those of the source. No cut-off for these calls is given here.

How the values were obtained:
[1] = system: NCI-H3122; assay: cells; details: Homo sapiens, NCI-H3122, 72 h
Description: Antiproliferative activity against human NCI-H3122 cells after 72 hrs by SRB or CCK8 assay

[2] = target: T1, ALK tyrosine kinase receptor (Homo sapiens, UniProt Q9UM73)
[3] = target: ALK tyrosine kinase receptor (Homo sapiens, UniProt Q9UM73, G1202R)
[4] = system: BaF3; assay: cells; details: Mus musculus, BaF3, 72 h
Description: Antiproliferative activity against mouse BAF3 cells harboring CD74-ROS1 G2032R mutant after 72 hrs by SRB or CCK8 assay

[5] = target: ALK tyrosine kinase receptor (Homo sapiens, UniProt Q9UM73, L1152R)
[6] = system: BaF3; assay: cells; details: Mus musculus, BaF3, 72 h; remark: listed apart in the source
[7] = target: ALK tyrosine kinase receptor (Homo sapiens, UniProt Q9UM73, T1151M)
[8] = system: NCI-H3122; assay: Induction of apoptosis in human NCI-H3122 cells at 20 to 80 nM after 48 hrs by Annexin V-FITC/propidium iodide staining based flow cytometry; assay type: functional, cell-based
[9] = system: BaF3; assay: cells; details: Mus musculus, BaF3, 72 h; remark: listed apart in the source
Description: Antiproliferative activity against mouse BAF3 cells harboring CD74-ROS1 after 72 hrs by SRB or CCK8 assay

[10] = system: SU-DHL-1; assay: cells; details: Homo sapiens, SU-DHL-1, 72 h
Description: Antiproliferative activity against human SU-DHL1 cells harboring NPM-ALK after 72 hrs by SRB or CCK8 assay

[11] = target: ALK tyrosine kinase receptor (Homo sapiens, UniProt Q9UM73, R1275Q)
[12] = system: BaF3; assay: cells; details: Mus musculus, BaF3, 72 h; remark: listed apart in the source
Description: Antiproliferative activity against IL3-stimulated mouse BAF3 cells after 72 hrs by SRB or CCK8 assay

[13] = system: HCC78; assay: cells; details: Homo sapiens, HCC78, 72 h
Description: Antiproliferative activity against human HCC78 cells harboring SLC34A2-ROS1 after 72 hrs by SRB or CCK8 assay

[14] = target: ALK tyrosine kinase receptor (Homo sapiens, UniProt Q9UM73, S1206Y)
[15] = system: BaF3; assay: cells; details: Mus musculus, BaF3, 72 h; remark: listed apart in the source
[16] = system: KARPAS-299; assay: cells; details: Homo sapiens, KARPAS-299, 72 h
Description: Antiproliferative activity against human KARPAS299 cells harboring NPM-ALK after 72 hrs by SRB or CCK8 assay

[17] = system: BaF3; assay: cells; details: Mus musculus, BaF3, 72 h; remark: listed apart in the source
Description: Antiproliferative activity against mouse BAF3 cells harboring EML4-ALK after 72 hrs by SRB or CCK8 assay

[18] = system: SU-DHL-1; assay: Induction of apoptosis in human SU-DHL1 cells at 20 to 80 nM after 48 hrs by Annexin V-FITC/propidium iodide staining based flow cytometry; assay type: functional, cell-based
[19] = target: T1, ALK tyrosine kinase receptor; details: NCI-H3122, 20 to 200 nM
Description: Inhibition of ALK phosphorylation at Y1278 residue in human NCI-H3122 cells at 20 to 200 nM after 1 hr by Western blot analysis

[20] = target: T1, ALK tyrosine kinase receptor; details: 20 to 200 nM
Description: Inhibition of ALK in human SU-DHL1 cells assessed as reduction in ERK phosphorylation at T202//Y204 residues at 20 to 200 nM after 1 hr by Western blot analysis

[21] = target: T1, ALK tyrosine kinase receptor; details: 20 to 200 nM; remark: listed apart in the source
Description: Inhibition of ALK in human SU-DHL1 cells assessed as reduction in STAT3 phosphorylation at Y705 residue at 20 to 200 nM after 1 hr by Western blot analysis

[22] = target: T1, ALK tyrosine kinase receptor; details: 20 to 200 nM; remark: listed apart in the source
Description: Inhibition of ALK phosphorylation at Y1278 residue in human SU-DHL1 cells at 20 to 200 nM after 1 hr by Western blot analysis

[23] = target: T1, ALK tyrosine kinase receptor; details: NCI-H3122, 20 to 200 nM; remark: listed apart in the source
Description: Inhibition of ALK in human NCI-H3122 cells assessed as reduction in STAT3 phosphorylation at Y705 residue at 20 to 200 nM after 1 hr by Western blot analysis

[24] = target: T1, ALK tyrosine kinase receptor; details: NCI-H3122, 20 to 200 nM; remark: listed apart in the source
Description: Inhibition of ALK in human NCI-H3122 cells assessed as reduction in ERK phosphorylation at T202//Y204 residues at 20 to 200 nM after 1 hr by Western blot analysis

[25] = target: T1, ALK tyrosine kinase receptor; details: 20 to 200 nM; remark: listed apart in the source
Description: Inhibition of ALK in human SU-DHL1 cells assessed as reduction in Akt phosphorylation at S473 residue at 20 to 200 nM after 1 hr by Western blot analysis

[26] = target: T1, ALK tyrosine kinase receptor; details: NCI-H3122, 20 to 200 nM; remark: listed apart in the source
Description: Inhibition of ALK in human NCI-H3122 cells assessed as reduction in Akt phosphorylation at S473 residue at 20 to 200 nM after 1 hr by Western blot analysis

Compound	IC50 [1] [nM]	IC50 [2] [nM]	IC50 [3] [nM]	other results
COc1ccc(NC(=O)CNC(=O)c2cc(C(C)C)c(O)cc2OC)cc1Nc1ncc(Cl)c(Nc2ccccc2S(=O)(=O)C(C)C)n1	12.8	48		
CC(C)c1cc(C(=O)NCC(=O)Nc2cccc(Nc3ncc(Cl)c(Nc4cc(S(=O)(=O)C(C)C)nn4C)n3)c2)c(O)cc1O	> 1000	262		
CC(C)c1cc(C(=O)NCC(=O)Nc2ccc(F)c(Nc3ncc(Cl)c(Nc4ccccc4S(=O)(=O)C(C)C)n3)c2)c(O)cc1O	7.2	1	15.5	
CC(C)Oc1ccc(NC(=O)CNC(=O)c2cc(C(C)C)c(O)cc2O)cc1Nc1ncc(Cl)c(Nc2ccccc2S(=O)(=O)C(C)C)n1	69	3.3		
COc1cc(OC)c(C(C)C)cc1C(=O)NCC(=O)Nc1cccc(Nc2ncc(Cl)c(Nc3ccccc3S(=O)(=O)C(C)C)n2)c1	> 1000	> 1000		
COc1ccc(NC(=O)C2(NC(=O)c3cc(C(C)C)c(O)cc3O)CC2)cc1Nc1ncc(Cl)c(Nc2ccccc2S(=O)(=O)C(C)C)n1	254	130		
COc1ccc(NC(=O)CNC(=O)c2cc(C(C)C)c(O)cc2O)cc1Nc1ncc(Cl)c(Nc2ccccc2S(=O)(=O)C(C)C)n1	6.9	1.7	1.8	IC50 [4]: 0.2 nM; IC50 [5]: 10.6 nM; IC50 [6]: < 1.5 nM; IC50 [7]: 2.2 nM; Activity [8]: Active; IC50 [9]: 0.2 nM; IC50 [10]: 4.8 nM; IC50 [11]: 2.7 nM; IC50 [12]: > 1000 nM; IC50 [13]: < 1.5 nM; IC50 [14]: 5.1 nM; IC50 [15]: < 1.5 nM; IC50 [16]: 10.4 nM; IC50 [17]: < 1.5 nM; Activity [18]: Active
COc1ccc(NC(=O)CNC(=O)c2cc(C(C)C)ccc2O)cc1Nc1ncc(Cl)c(Nc2ccccc2S(=O)(=O)C(C)C)n1	4	0.7	15.3	
COc1ccc(Nc2ncc(Cl)c(Nc3ccccc3S(=O)(=O)C(C)C)n2)cc1NC(=O)CNC(=O)c1cc(C(C)C)c(O)cc1O	> 1000	2.6		
CC(C)Oc1ccc(NC(=O)CNC(=O)c2cc(C(C)C)c(O)cc2O)cc1Nc1nccc(Nc2ccccc2S(=O)(=O)C(C)C)n1	123	4.2		
Cc1cc(Nc2ncc(Cl)c(Nc3ccccc3S(=O)(=O)C(C)C)n2)c(OC(C)C)cc1C1CCNCC1 [CERITINIB]	96			IC50 [4]: > 1000 nM; inhibition [19]: Active; IC50 [6]: 726 nM; inhibition [20]: Active; IC50 [9]: 234 nM; IC50 [10]: 122 nM; inhibition [21]: Active; inhibition [22]: Active; IC50 [12]: > 1000 nM; inhibition [23]: Active; IC50 [13]: > 1000 nM; inhibition [24]: Active; IC50 [15]: 54.9 nM; inhibition [25]: Active; inhibition [26]: Active; IC50 [16]: 84 nM; IC50 [17]: 10.7 nM
COc1ccc(NC(=O)C(C)NC(=O)c2cc(C(C)C)c(O)cc2O)cc1Nc1ncc(Cl)c(Nc2ccccc2S(=O)(=O)C(C)C)n1 (stereo not given)	6.8	0.7		
COc1ccc(NC(=O)CNC(=O)c2cc(C(C)C)c(O)cc2O)cc1Nc1ncnc(Nc2ccccc2S(=O)(=O)C(C)C)n1	64	1.3		
COc1ccc(NC(=O)CNC(=O)c2cc(C(C)C)c(OC)cc2O)cc1Nc1ncc(Cl)c(Nc2ccccc2S(=O)(=O)C(C)C)n1	13.7	10.5		
CC(C)c1cc(C(=O)NCC(=O)Nc2cccc(Nc3ncc(Cl)c(Nc4ccccc4S(=O)(=O)C(C)C)n3)c2)c(O)cc1O	84	0.8		
COc1ccc(NC(=O)C(Cc2ccccc2)NC(=O)c2cc(C(C)C)c(O)cc2O)cc1Nc1ncc(Cl)c(Nc2ccccc2S(=O)(=O)C(C)C)n1 (stereo not given)	57	7.8	65	
COc1ccc(NC(=O)CNC(=O)c2ccc(O)c(C(C)C)c2)cc1Nc1ncc(Cl)c(Nc2ccccc2S(=O)(=O)C(C)C)n1	9.1	1.4	6.1	
COc1ccc(NC(=O)C(NC(=O)c2cc(C(C)C)c(O)cc2O)C(C)C)cc1Nc1ncc(Cl)c(Nc2ccccc2S(=O)(=O)C(C)C)n1 (stereo not given)	> 1000	> 1000		
COc1ccc(NC(=O)CNC(=O)c2cc(C(C)C)c(O)cc2O)cc1Nc1ncc(Cl)c(Nc2ccccc2P(C)(C)=O)n1	99	1.5	7.8	
C[C@H]1Oc2cc(cnc2N)-c2c(nn(C)c2C#N)CN(C)C(=O)c2ccc(F)cc21 [LORLATINIB]	7.8			IC50 [4]: 262 nM; IC50 [6]: 200 nM; IC50 [9]: 1.2 nM; IC50 [10]: 4.9 nM; IC50 [12]: > 1000 nM; IC50 [13]: 357 nM; IC50 [15]: 42.4 nM; IC50 [16]: 3 nM; IC50 [17]: 2.9 nM
